Assay results from ChEMBL document CHEMBL1201862, “PubChem BioAssay data set” (2004).
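Exposure lasted 48 hours, with cells grown in 96-well plates and compounds tested at five concentrations. Abbreviation: GI50, concentration required for 50% inhibition of growth.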 Activity calls are given as the source filed them. No stated cut-off is given here; in the data, active = GI50 up to about 1.1 µM and inactive = higher.

Legend:
Assay in all cases: NCI tumour cell line growth inhibition, 48 h
[1] = system: HCT-15
[2] = system: NCI-H460
[3] = system: M19-MEL
[4] = system: SK-MEL-5
[5] = system: NCI-H226
[6] = system: IGROV-1
[7] = system: SW-620
[8] = system: SR
[9] = system: NCI-H23
[10] = system: K562
[11] = system: UO-31
[12] = system: SF-295
[13] = system: TK-10
[14] = system: NCI-H522
[15] = system: KM12
[16] = system: ACHN
[17] = system: U-251
[18] = system: DU-145
[19] = system: NCI/ADR-RES
[20] = system: BT-549

| Structure (SMILES) | GI50 [1] [µM] | GI50 [2] | GI50 [3] | GI50 [4] | GI50 [5] | GI50 [6] | GI50 [7] | GI50 [8] | GI50 [9] | GI50 [10] | GI50 [11] | GI50 [12] | GI50 [13] | GI50 [14] | GI50 [15] | GI50 [16] | GI50 [17] | GI50 [18] | GI50 [19] | GI50 [20] |
| --- | --- | --- | --- | --- | --- | --- | --- | --- | --- | --- | --- | --- | --- | --- | --- | --- | --- | --- | --- | --- |
| C[C@]12CCC(=O)C=C1CC[C@@H]1[C@@H]2C(=O)C[C@@]2(C)[C@H]1CC[C@]2(O)C(=O)CO [CORTISONE] | > 100 | > 100 µM (inactive) | > 100 µM (inactive) | > 100 µM (inactive) | > 100 µM (inactive) | > 100 µM (inactive) | > 100 µM (inactive) | > 100 µM (inactive) | > 100 µM (inactive) | > 100 µM (inactive) | > 100 µM (inactive) | > 100 µM (inactive) | > 100 µM (inactive) | > 100 µM (inactive) | > 100 µM (inactive) | > 100 µM (inactive) | > 100 µM (inactive) |  |  |  |
| Cc1ccc(Nc2nc3c(s2)C(=O)c2ccccc2C3=O)c(C)c1 | 17.5 | 22.2 µM (inactive) | 2.37 µM (inactive) | 13.1 µM (inactive) | 12.1 µM (inactive) | 16.4 µM (inactive) | 20 µM (inactive) |  | 10.1 µM (inactive) | 10.9 µM (inactive) | 14.3 µM (inactive) | 15.3 µM (inactive) | 21.8 µM (inactive) | 3.14 µM (inactive) | 16 µM (inactive) | 15.7 µM (inactive) | 18.9 µM (inactive) |  |  |  |
| O=c1[nH]c(=O)n([C@H]2C[C@@H](CO)[C@@H](O)C2)cc1I | > 100 | > 100 µM (inactive) | > 100 µM (inactive) | > 100 µM (inactive) | > 100 µM (inactive) | > 100 µM (inactive) | > 100 µM (inactive) |  | > 100 µM (inactive) | > 100 µM (inactive) | > 100 µM (inactive) | > 10 µM (inactive) | > 100 µM (inactive) | > 100 µM (inactive) | > 100 µM (inactive) | > 100 µM (inactive) | > 100 µM (inactive) |  |  |  |
| COc1ccc(NC(=O)CC/C(CC(=O)c2ccco2)=N/NC(N)=S)cc1 | > 100 | > 100 µM (inactive) | > 100 µM (inactive) |  | > 100 µM (inactive) | > 100 µM (inactive) | > 100 µM (inactive) |  | > 100 µM (inactive) | > 100 µM (inactive) | > 100 µM (inactive) | > 100 µM (inactive) | > 100 µM (inactive) | > 100 µM (inactive) | > 100 µM (inactive) | > 100 µM (inactive) | > 100 µM (inactive) |  |  |  |
| CCOC(=O)C(C)NC(=O)NC12CC3CC(CC(F)(C3)C1)C2 (configuration not stated) |  | > 100 µM (inactive) | 61.1 µM (inactive) | 46 µM (inactive) |  | > 100 µM (inactive) | > 100 µM (inactive) |  | > 100 µM (inactive) | > 100 µM (inactive) | 40.2 µM (inactive) |  | > 100 µM (inactive) | 65.2 µM (inactive) | > 100 µM (inactive) | > 100 µM (inactive) | > 100 µM (inactive) |  |  |  |
| CC(=O)OC1CC2(C)C(OC(C)=O)CC1C2(C)C (configuration not stated) | > 100 | > 100 µM (inactive) |  | > 100 µM (inactive) | > 100 µM (inactive) | > 100 µM (inactive) | > 100 µM (inactive) | > 100 µM (inactive) | > 100 µM (inactive) | > 100 µM (inactive) | > 100 µM (inactive) | > 100 µM (inactive) | > 100 µM (inactive) | > 100 µM (inactive) | > 100 µM (inactive) | > 100 µM (inactive) | > 100 µM (inactive) | > 100 µM (inactive) | > 100 µM (inactive) | > 100 µM (inactive) |
| CCOC(=O)C1CC(=O)C=C2CCCCC21 (configuration not stated) | > 100 | > 100 µM (inactive) | > 100 µM (inactive) | > 100 µM (inactive) |  | > 100 µM (inactive) | > 100 µM (inactive) |  | > 100 µM (inactive) | > 100 µM (inactive) | > 100 µM (inactive) | > 100 µM (inactive) | > 100 µM (inactive) | > 100 µM (inactive) | > 100 µM (inactive) | > 100 µM (inactive) | > 100 µM (inactive) |  |  |  |
| O=C1NC(Cc2ccc(O)cc2)C(=O)N2CCCC12 (configuration not stated) | > 100 | > 100 µM (inactive) | > 100 µM (inactive) | > 100 µM (inactive) | > 100 µM (inactive) | > 100 µM (inactive) | > 100 µM (inactive) | > 100 µM (inactive) |  | > 100 µM (inactive) | > 100 µM (inactive) | > 100 µM (inactive) | > 100 µM (inactive) | > 100 µM (inactive) | > 100 µM (inactive) | > 100 µM (inactive) | > 100 µM (inactive) |  |  |  |
